# How the values were obtained:
# Assay in all cases: Histone peptide microarray
# Assay type in all cases: binding, human
# TRIM66 (PB) = settings: TRIM66 (PB), GST-tagged; arrays performed twice, n of 4
# Text: (§1) To more comprehensively define the histone interactions of the 31 PHD readers identified from the domain microarray analyses, we probed each on an alternate microarray platform containing a library of 293 synthetic histone peptides with single or combinatorial PTMs (Additional file 2: Figure S4 and Additional file 3: Table S2).
# (§2) The 31 GST-tagged PHD readers identified in the PHD finger domain array were expressed and purified as previously. Histone peptide arrays and peptide pulldown assays were conducted as recently described (specifically, the optimized protocol from Petell et al. for the former).
# (§3) Supplementary file 13072_2020_328_MOESM3_ESM.xlsx: Additional file 3: Table S2. […] Excel Tab Peptide List is a compiled list of the entire 293 histone peptide library with amino acid sequence ranges. […] Each number corresponds to the peptide number designated in Peptide List. Excel Tab Average Signals is a compiled set of binding data: chromatin reader at 0.5 μM vs. entire 293 peptide library. Data is presented as the average and standard deviation of 4 replicates. The average signals are colored to indicate signal intensity with green being strong and white being weak/low. […] Key: red= stronger relative binding; blue = weaker relative binding. Excel Tab Array info summary is a table summarizing the domains, sequence coverage, array signal range, and noise for each of the GST-tagged readers assayed on the peptide microarrays.
# CHD4 (PPCC) = settings: CHD4 (PPCC), GST-tagged; arrays performed twice, n of 4
# Text: as §1, §2, §3
# MLL5 = settings: MLL5, GST-tagged; arrays performed twice, n of 4
# Text: as §1, §2, §3
# CHD5 (PPCC) = settings: CHD5 (PPCC), GST-tagged; arrays performed twice, n of 4
# Text: as §1, §2, §3
# PHF21A = settings: PHF21A, GST-tagged; arrays performed twice, n of 4
# Text: as §1, §2, §3
# ING3 = settings: ING3, GST-tagged; arrays performed twice, n of 4
# Text: as §1, §2, §3
# ING1 = settings: ING1, GST-tagged; arrays performed twice, n of 4
# Text: as §1, §2, §3
# PHF2 = settings: PHF2, GST-tagged; arrays performed twice, n of 4
# Text: as §1, §2, §3
# SP140L = settings: SP140L, GST-tagged; arrays performed twice, n of 4
# Text: as §1, §2, §3
# KDM4C (TTP) = settings: KDM4C (TTP), GST-tagged; arrays performed twice, n of 4
# Text: as §1, §2, §3
# KDM5A (3) = settings: KDM5A (3), GST-tagged; arrays performed twice, n of 4
# Text: as §1, §2, §3
# BAZ2B = settings: BAZ2B, GST-tagged; arrays performed twice, n of 4
# Text: as §1, §2, §3
# PHF8 = settings: PHF8, GST-tagged; arrays performed twice, n of 4
# Text: as §1, §2, §3
# MORC3 (CW) = settings: MORC3 (CW), GST-tagged; arrays performed twice, n of 4
# Text: as §1, §2, §3
# DPF2 (PPC2W2) = settings: DPF2 (PPC2W2), GST-tagged; arrays performed twice, n of 4
# Text: as §1, §2, §3
# ING2 = settings: ING2, GST-tagged; arrays performed twice, n of 4
# Text: as §1, §2, §3
# PHF23 = settings: PHF23, GST-tagged; arrays performed twice, n of 4
# Text: as §1, §2, §3
# TAF3 = settings: TAF3, GST-tagged; arrays performed twice, n of 4
# Text: as §1, §2, §3
# ING4 = settings: ING4, GST-tagged; arrays performed twice, n of 4
# Text: as §1, §2, §3
# DIDO1 = settings: DIDO1, GST-tagged; arrays performed twice, n of 4
# Text: as §1, §2, §3
# KDM7A = settings: KDM7A, GST-tagged; arrays performed twice, n of 4
# Text: as §1, §2, §3
# AIRE (PP) = settings: AIRE (PP), GST-tagged; arrays performed twice, n of 4
# Text: as §1, §2, §3
# PHF13 = settings: PHF13, GST-tagged; arrays performed twice, n of 4
# Text: as §1, §2, §3
# PHRF1 (RP) = settings: PHRF1 (RP), GST-tagged; arrays performed twice, n of 4
# Text: as §1, §2, §3
# CHD5 (PCC) = settings: CHD5 (PCC), GST-tagged; arrays performed twice, n of 4
# Text: as §1, §2, §3
# KDM5B (3) = settings: KDM5B (3), GST-tagged; arrays performed twice, n of 4
# Text: as §1, §2, §3
# ING5 = settings: ING5, GST-tagged; arrays performed twice, n of 4
# Text: as §1, §2, §3
# KDM5A (1) = settings: KDM5A (1), GST-tagged; arrays performed twice, n of 4
# Text: as §1, §2, §3
# BPTF (PB) = settings: BPTF (PB), GST-tagged; arrays performed twice, n of 4
# Text: as §1, §2, §3
# RAG2 = settings: RAG2, GST-tagged; arrays performed twice, n of 4
# Text: as §1, §2, §3
Substance,Array Heatmap value (peptide array binding signal) (TRIM66 (PB)),Array Heatmap value (peptide array binding signal) (CHD4 (PPCC)),Array Heatmap value (peptide array binding signal) (MLL5),Array Heatmap value (peptide array binding signal) (CHD5 (PPCC)),Array Heatmap value (peptide array binding signal) (PHF21A),Array Heatmap value (peptide array binding signal) (ING3),Array Heatmap value (peptide array binding signal) (ING1),Array Heatmap value (peptide array binding signal) (PHF2),Array Heatmap value (peptide array binding signal) (SP140L),Array Heatmap value (peptide array binding signal) (KDM4C (TTP)),Array Heatmap value (peptide array binding signal) (KDM5A (3)),Array Heatmap value (peptide array binding signal) (BAZ2B),Array Heatmap value (peptide array binding signal) (PHF8),Array Heatmap value (peptide array binding signal) (MORC3 (CW)),Array Heatmap value (peptide array binding signal) (DPF2 (PPC2W2)),Array Heatmap value (peptide array binding signal) (ING2),Array Heatmap value (peptide array binding signal) (PHF23),Array Heatmap value (peptide array binding signal) (TAF3),Array Heatmap value (peptide array binding signal) (ING4),Array Heatmap value (peptide array binding signal) (DIDO1),other results
H4K5ac + K16ac: H4 1-23,0.5396,0.5383,0.5139,0.5427,0.4348,0.4411,0.5084,0.425,0.3592,0.5082,0.4193,0.4504,0.3305,0.3384,0.6547,0.5823,0.509,0.2655,0.4436,0.6124,Array Heatmap value (peptide array binding signal) (KDM7A): 0.3523; Array Heatmap value (peptide array binding signal) (AIRE (PP)): 0.4583; Array Heatmap value (peptide array binding signal) (PHF13): 0.5774; Array Heatmap value (peptide array binding signal) (PHRF1 (RP)): 0.4298; Array Heatmap value (peptide array binding signal) (CHD5 (PCC)): 0.7385; Array Heatmap value (peptide array binding signal) (KDM5B (3)): 0.4611; Array Heatmap value (peptide array binding signal) (ING5): 0.3563; Array Heatmap value (peptide array binding signal) (KDM5A (1)): 0.4676; Array Heatmap value (peptide array binding signal) (BPTF (PB)): 0.3372; Array Heatmap value (peptide array binding signal) (RAG2): 0.2387
H4K5me1 + K8ac + K12me1: H4 1-23,0.6387,0.6142,0.5981,0.5643,0.4816,0.4924,0.5678,0.5535,0.3553,0.4942,0.4387,0.4974,0.3528,0.3838,0.687,0.626,0.5681,0.2843,0.4694,0.8611,Array Heatmap value (peptide array binding signal) (KDM7A): 0.3765; Array Heatmap value (peptide array binding signal) (AIRE (PP)): 0.4591; Array Heatmap value (peptide array binding signal) (PHF13): 0.6435; Array Heatmap value (peptide array binding signal) (PHRF1 (RP)): 0.4574; Array Heatmap value (peptide array binding signal) (CHD5 (PCC)): 0.7798; Array Heatmap value (peptide array binding signal) (KDM5B (3)): 0.5017; Array Heatmap value (peptide array binding signal) (ING5): 0.3748; Array Heatmap value (peptide array binding signal) (KDM5A (1)): 0.4746; Array Heatmap value (peptide array binding signal) (BPTF (PB)): 0.368; Array Heatmap value (peptide array binding signal) (RAG2): 0.2728
H4K5me1 + K8me1 + K12me1: H4 1-23,0.6442,0.619,0.5583,0.5726,0.4789,0.4977,0.5585,0.5422,0.3587,0.4976,0.4441,0.4829,0.35,0.3716,0.7329,0.6061,0.5446,0.2856,0.4603,0.7167,Array Heatmap value (peptide array binding signal) (KDM7A): 0.3674; Array Heatmap value (peptide array binding signal) (AIRE (PP)): 0.4682; Array Heatmap value (peptide array binding signal) (PHF13): 0.6372; Array Heatmap value (peptide array binding signal) (PHRF1 (RP)): 0.5051; Array Heatmap value (peptide array binding signal) (CHD5 (PCC)): 0.851; Array Heatmap value (peptide array binding signal) (KDM5B (3)): 0.4984; Array Heatmap value (peptide array binding signal) (ING5): 0.3655; Array Heatmap value (peptide array binding signal) (KDM5A (1)): 0.4935; Array Heatmap value (peptide array binding signal) (BPTF (PB)): 0.3553; Array Heatmap value (peptide array binding signal) (RAG2): 0.2518
H4K8ac + K12ac + K16ac: H4 1-23,0.6251,0.6125,0.5342,0.614,0.5044,0.5255,0.5851,0.546,0.383,0.5459,0.5089,0.4965,0.3768,0.3996,0.6365,0.6214,0.5595,0.2999,0.4992,0.7526,Array Heatmap value (peptide array binding signal) (KDM7A): 0.4096; Array Heatmap value (peptide array binding signal) (AIRE (PP)): 0.4841; Array Heatmap value (peptide array binding signal) (PHF13): 0.6695; Array Heatmap value (peptide array binding signal) (PHRF1 (RP)): 0.4693; Array Heatmap value (peptide array binding signal) (CHD5 (PCC)): 0.7879; Array Heatmap value (peptide array binding signal) (KDM5B (3)): 0.4821; Array Heatmap value (peptide array binding signal) (ING5): 0.3961; Array Heatmap value (peptide array binding signal) (KDM5A (1)): 0.498; Array Heatmap value (peptide array binding signal) (BPTF (PB)): 0.384; Array Heatmap value (peptide array binding signal) (RAG2): 0.271
